Laboratory results reported in PMC4774911, “Biochemical Screening of Five Protein Kinases from Plasmodium falciparum against 14,000 Cell-Active Compounds” (PLoS ONE, 2016).
Several values for one entry are separate records, joined by “and”; a condition that tells them apart may be missing. Identical values can stand only once.

Experiments:
Test in all cases: biochemical
Parameters in all cases: endogenous in cells; host or cells: K562 cell extract; species or system K562 (extract); replicate k of n = 2 (each experiment ID is one independent experiment; two experiment IDs per compound)
Details in all cases: read-out: KDapp
IRAK4 = molecular target: T1, IRAK4 (Homo sapiens, UniProt Q9NWZ3)
T1 sequence (Q9NWZ3 1-460): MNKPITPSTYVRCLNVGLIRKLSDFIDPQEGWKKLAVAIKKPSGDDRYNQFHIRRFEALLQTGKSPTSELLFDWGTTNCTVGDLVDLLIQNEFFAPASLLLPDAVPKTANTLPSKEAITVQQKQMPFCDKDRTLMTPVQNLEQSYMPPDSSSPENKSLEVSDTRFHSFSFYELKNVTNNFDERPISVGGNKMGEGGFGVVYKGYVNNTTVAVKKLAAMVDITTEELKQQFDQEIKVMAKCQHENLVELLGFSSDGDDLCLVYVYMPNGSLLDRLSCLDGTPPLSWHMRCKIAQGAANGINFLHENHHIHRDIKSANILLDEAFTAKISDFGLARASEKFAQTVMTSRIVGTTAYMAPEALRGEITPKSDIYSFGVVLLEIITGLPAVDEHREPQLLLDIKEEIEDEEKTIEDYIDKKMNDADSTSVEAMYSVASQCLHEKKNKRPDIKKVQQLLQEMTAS

PIK3R4 = PIK3R4 (Homo sapiens, UniProt Q99570)
PIK3R4, sequence (Q99570 whole entry): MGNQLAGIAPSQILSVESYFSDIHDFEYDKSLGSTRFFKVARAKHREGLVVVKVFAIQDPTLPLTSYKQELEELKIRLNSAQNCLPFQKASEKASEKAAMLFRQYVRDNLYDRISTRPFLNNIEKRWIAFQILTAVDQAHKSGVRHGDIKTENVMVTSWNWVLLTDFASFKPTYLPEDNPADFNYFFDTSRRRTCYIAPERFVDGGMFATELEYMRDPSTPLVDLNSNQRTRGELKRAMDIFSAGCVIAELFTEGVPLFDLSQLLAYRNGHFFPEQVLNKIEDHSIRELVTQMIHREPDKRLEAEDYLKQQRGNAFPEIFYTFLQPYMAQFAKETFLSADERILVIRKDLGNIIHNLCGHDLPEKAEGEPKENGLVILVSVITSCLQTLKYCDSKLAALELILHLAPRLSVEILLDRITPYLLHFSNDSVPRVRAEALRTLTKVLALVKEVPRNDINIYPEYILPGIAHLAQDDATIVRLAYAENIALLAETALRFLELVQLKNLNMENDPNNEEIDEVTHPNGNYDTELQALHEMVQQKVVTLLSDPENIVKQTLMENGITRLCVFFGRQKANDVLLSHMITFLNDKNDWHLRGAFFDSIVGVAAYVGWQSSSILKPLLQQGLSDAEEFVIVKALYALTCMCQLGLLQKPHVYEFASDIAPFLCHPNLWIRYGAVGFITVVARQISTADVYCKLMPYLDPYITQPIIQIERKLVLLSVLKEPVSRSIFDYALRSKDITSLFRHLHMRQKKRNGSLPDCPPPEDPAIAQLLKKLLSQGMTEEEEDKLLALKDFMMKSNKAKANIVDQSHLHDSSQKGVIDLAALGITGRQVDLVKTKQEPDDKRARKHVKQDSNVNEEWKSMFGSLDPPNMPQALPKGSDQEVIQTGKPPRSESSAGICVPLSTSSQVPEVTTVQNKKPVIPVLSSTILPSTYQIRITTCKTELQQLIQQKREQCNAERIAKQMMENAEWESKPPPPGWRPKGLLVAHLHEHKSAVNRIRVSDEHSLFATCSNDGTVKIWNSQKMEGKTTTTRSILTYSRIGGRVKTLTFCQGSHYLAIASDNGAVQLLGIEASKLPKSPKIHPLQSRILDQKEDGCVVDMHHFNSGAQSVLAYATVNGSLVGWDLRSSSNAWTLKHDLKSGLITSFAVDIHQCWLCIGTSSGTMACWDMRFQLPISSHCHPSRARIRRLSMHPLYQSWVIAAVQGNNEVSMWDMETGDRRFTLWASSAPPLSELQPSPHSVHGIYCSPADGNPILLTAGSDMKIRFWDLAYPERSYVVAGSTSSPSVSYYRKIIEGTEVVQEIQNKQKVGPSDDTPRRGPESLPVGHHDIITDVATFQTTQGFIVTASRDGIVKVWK

CAMK2D = CAMK2D (Homo sapiens, UniProt Q13557)
CAMK2D, sequence (Q13557 whole entry): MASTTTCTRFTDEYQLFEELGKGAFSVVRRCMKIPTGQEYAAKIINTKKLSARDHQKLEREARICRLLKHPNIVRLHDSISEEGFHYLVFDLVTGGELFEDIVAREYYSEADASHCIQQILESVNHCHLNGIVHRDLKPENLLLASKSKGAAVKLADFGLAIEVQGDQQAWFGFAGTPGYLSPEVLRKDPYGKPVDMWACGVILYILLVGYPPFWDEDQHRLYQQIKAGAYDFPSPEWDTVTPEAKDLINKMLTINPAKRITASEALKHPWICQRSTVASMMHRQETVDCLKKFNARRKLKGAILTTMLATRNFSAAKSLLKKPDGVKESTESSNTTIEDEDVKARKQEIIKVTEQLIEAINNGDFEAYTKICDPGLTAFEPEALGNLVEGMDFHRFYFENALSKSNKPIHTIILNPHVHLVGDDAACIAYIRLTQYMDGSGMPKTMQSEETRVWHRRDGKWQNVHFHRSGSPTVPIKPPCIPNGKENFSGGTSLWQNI

MAPK8 = MAPK8 (Homo sapiens, UniProt P45983)
MAPK8, sequence (P45983 whole entry): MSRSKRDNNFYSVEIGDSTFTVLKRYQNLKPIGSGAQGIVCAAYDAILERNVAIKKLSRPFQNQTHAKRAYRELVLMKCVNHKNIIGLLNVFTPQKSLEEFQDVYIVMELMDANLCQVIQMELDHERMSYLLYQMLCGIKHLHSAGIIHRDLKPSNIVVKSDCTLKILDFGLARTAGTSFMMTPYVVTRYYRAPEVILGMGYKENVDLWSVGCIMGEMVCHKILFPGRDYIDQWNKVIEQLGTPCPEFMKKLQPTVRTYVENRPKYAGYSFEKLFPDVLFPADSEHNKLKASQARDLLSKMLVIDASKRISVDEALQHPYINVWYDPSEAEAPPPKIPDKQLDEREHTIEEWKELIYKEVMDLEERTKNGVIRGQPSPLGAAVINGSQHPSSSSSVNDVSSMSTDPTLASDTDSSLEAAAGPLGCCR

CDK5 = CDK5 (Homo sapiens, UniProt Q00535)
CDK5, sequence (Q00535 whole entry): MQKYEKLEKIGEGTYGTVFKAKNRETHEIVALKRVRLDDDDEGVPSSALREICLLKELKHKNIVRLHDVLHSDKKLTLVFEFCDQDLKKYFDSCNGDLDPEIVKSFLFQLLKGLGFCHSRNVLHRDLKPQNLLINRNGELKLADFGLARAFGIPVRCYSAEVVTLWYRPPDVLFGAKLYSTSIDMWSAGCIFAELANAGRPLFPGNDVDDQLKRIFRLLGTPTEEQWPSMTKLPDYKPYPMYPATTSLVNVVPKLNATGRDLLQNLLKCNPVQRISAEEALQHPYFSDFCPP

CHEK1 = molecular target: T2, CHEK1 (Homo sapiens, UniProt O14757)
T2 sequence (O14757 1-476): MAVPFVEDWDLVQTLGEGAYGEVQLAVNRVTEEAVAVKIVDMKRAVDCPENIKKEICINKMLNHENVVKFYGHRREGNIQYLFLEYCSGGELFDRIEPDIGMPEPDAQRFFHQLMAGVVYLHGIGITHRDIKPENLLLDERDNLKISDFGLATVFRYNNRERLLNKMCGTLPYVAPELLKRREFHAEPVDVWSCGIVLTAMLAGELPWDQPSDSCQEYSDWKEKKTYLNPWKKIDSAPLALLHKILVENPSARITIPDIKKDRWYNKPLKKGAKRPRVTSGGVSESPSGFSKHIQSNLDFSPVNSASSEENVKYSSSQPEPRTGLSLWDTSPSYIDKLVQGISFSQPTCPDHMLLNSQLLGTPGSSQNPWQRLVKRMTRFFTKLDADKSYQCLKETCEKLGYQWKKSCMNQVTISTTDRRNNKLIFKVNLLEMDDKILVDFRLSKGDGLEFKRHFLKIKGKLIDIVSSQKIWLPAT

BMX = BMX (Homo sapiens, UniProt P51813)
BMX, sequence (P51813 whole entry): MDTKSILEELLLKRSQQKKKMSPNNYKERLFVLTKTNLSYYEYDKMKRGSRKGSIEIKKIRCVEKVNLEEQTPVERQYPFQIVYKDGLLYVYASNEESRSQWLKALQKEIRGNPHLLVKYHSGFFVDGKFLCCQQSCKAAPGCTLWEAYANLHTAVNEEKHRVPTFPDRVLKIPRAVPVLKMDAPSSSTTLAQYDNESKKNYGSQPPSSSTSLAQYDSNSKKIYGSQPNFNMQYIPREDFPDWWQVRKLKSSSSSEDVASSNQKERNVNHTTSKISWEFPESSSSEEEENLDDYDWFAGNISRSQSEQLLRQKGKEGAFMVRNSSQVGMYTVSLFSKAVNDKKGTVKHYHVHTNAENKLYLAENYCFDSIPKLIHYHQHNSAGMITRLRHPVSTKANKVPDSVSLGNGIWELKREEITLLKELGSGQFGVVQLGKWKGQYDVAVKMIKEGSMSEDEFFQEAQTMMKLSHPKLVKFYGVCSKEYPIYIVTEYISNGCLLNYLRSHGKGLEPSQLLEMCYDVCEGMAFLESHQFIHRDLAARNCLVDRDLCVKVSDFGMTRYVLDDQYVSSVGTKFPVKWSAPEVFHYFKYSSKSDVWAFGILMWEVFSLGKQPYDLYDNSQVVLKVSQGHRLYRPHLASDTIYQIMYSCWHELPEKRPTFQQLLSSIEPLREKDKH

TBK1 = molecular target: T3, TBK1 (Homo sapiens, UniProt Q9UHD2)
T3 sequence (Q9UHD2 1-729): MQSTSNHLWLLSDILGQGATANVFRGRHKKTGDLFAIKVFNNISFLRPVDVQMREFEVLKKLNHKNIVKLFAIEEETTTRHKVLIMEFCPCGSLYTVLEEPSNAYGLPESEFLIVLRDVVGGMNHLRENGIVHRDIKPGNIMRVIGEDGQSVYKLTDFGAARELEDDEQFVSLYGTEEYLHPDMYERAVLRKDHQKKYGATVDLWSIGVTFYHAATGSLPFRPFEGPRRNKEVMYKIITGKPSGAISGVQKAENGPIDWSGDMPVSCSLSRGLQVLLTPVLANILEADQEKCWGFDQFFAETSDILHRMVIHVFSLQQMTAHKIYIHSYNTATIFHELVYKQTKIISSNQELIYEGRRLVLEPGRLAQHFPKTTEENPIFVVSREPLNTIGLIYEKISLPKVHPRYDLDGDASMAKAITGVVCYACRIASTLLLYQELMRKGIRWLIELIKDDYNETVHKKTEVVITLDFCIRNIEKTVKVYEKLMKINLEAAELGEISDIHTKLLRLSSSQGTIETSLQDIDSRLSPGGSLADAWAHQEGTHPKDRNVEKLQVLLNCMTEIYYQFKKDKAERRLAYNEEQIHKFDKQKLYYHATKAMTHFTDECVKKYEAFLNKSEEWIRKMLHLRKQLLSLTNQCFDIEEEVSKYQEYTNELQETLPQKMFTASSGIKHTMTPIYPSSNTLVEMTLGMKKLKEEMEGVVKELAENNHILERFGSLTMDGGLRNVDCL

CSNK2A2 = CSNK2A2 (Homo sapiens, UniProt P19784)
CSNK2A2, sequence (P19784 whole entry): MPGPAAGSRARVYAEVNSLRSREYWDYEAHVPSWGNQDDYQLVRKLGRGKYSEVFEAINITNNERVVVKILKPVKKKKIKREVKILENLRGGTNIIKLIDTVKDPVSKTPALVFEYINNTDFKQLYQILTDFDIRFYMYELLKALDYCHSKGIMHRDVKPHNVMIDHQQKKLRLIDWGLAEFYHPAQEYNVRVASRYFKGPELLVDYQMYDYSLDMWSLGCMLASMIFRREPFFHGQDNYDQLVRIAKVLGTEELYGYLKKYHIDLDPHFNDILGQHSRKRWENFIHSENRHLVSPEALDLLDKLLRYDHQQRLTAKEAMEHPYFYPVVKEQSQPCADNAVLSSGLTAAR

SMILES	Kd (IRAK4) [nM]	Kd (PIK3R4) [nM]	Kd (CAMK2D)	Kd (MAPK8)	Kd (CDK5)	Kd (CHEK1) [nM]	Kd (BMX) [nM]	Kd (TBK1)	Kd (CSNK2A2)
CN1CCN(c2ccc(Nc3ncc(C#N)c(Nc4ccccc4C(N)=O)n3)cc2)CC1.Cl [TCMDC-134116]	96.4	1840	323 nM and 163 nM	363 nM and 1230 nM	40.5 nM and 66.5 nM	92	285	229 nM and 220 nM	–
CN(C)CC(O)COc1ccc(Nc2ncc([N+](=O)[O-])c(Nc3ccccc3O)n2)cc1.O=C(O)C(F)(F)F (stereo not drawn) [TCMDC-141399]	–	–	–	–	–	–	–	–	33.3 nM and 26.8 nM
